# Test results from patent publication US20250032476A1, “ALPHA-2A ADRENERGIC RECEPTOR MODULATORS AND USES THEREOF” (The Regents of the University of California, priority 2021, published 2025).
# Where “and” joins values, the source holds several entries; their conditions need not be identical. Equal entries are not always repeated. Entries after “also recorded” stand apart in the source; their conditions may differ. Structures can show the parent of a compound that is named as a salt. Where two headings read alike, the source gives them in different places.
# Key:
# human α2AAR [1] = target: T1, human α2AAR (Homo sapiens (Human), UniProt P08913); test: Radioligand competition binding to human α2AAR (HEK293T membranes, [3H]RX82,1002); conditions: for Ki: human α2AAR
# [2] = system: imidazoline-2 receptor (I2R); test: I2R binding (Eurofins Cerep); conditions: tested at 500 nM
# [3] = Pharmacokinetics in mice (plasma, brain, CSF); type: in vivo
# Protocol: Pharmacokinetics. Pharmacokinetic experiments were performed by Bienta (Enamine Biology Services) in accordance with Enamine pharmacokinetic study protocols and Institutional Animal Care and Use Guidelines (protocol number 1-2/2020). […] In each compound study, nine time points (5, 15, 30, 60, 120, 240, 360, 480 and 1440 min) were collected, each of the time point treatment group included 3 animals. There was also a control group of one animal. In the ‘9087, ‘7075, ‘4622 studies, male C57BL/6N mice were used, for PS75 CD-1 mice, and for ‘2998 male Balb/cAnN mice. For all compound studies the animals were randomly assigned to the treatment groups before the pharmacokinetic study; all animals were fasted for 4 h before dosing. For injections, ‘9087 was dissolved in Captisol—water (40%:60%, w/v), ‘4622 was dissolved in a 20% Kolliphor HS—physiological saline solution, and ‘7075, PS75, and ‘2998 were dissolved in a 20% 2-HPBCD—aqueous solution. The batches of working formulations were prepared 10 minutes prior to the in vivo study.
# (§1) Mice were injected i.p. with 2,2,2-tribromoethanol at 150 mg/kg prior to drawing CSF and blood. CSF was collected under a stereomicroscope from cisterna magna using 1 mL syringes. Blood collection was performed from the orbital sinus in microtainers containing K3EDTA. Animals were sacrificed by cervical dislocation after the blood samples collection. Blood samples were centrifuged 10 min at 3000 rpm. Brain samples (right lobe) were weighed and transferred into 1.5 ml tubes. All samples were immediately processed, flash-frozen and stored at −70° C. until subsequent analysis.
# Plasma samples (40 μL) were mixed with 200 μL of internal standard (IS) solution. After mixing by pipetting and centrifuging for 4 min at 6000 rpm, 4 μL of each supernatant was injected into the LC-MS/MS system. Solutions of internal standards were used to quantify compounds in the plasma samples. […] After this, the samples were centrifuged for 4 min at 14,000 rpm, and supernatant was injected into LC-MS/MS system. CSF samples (2 μL) were mixed with 40 μL of an internal stock solution. After mixing by pipetting and centrifuging for 4 min at 6,000 rpm, 5 μL of each supernatant was injected into LC-MS/MS system.
# (§2) Analyses of plasma, brain and CSF samples were conducted at Enamine/Bienta. The concentrations of compounds in plasma and brain samples were determined using high performance liquid chromatography/tandem mass spectrometry (HPLC-MS/MS). Data acquisition and system control was performed using Analyst 1.5.2 software (AB Sciex, Canada). […] Pharmacokinetic data analysis was performed using noncompartmental, bolus injection or extravascular input analysis models in WinNonlin 5.2 (PharSight).
# as §1, with “mL” for “ml”
# as §2
# Additional pharmacokinetic experiments were performed by Sai Life Sciences (Hyderabad, India) in accordance with the Sai Study Protocol SAIDMPK/PK-22-04-0340. […] Testing was done in C57BL/6 mice.
# SNI mice = test: Spared-nerve injury (SNI) model of neuropathic pain, von Frey mechanical thresholds; type: in vivo; conditions: for Effect of atipamezole on the agonist's effect in SNI mice: atipamezole 2 mg/kg, 15 minutes prior
# Protocol: Spared-nerve injury (SNI) model of neuropathic pain. Under isoflurane anesthesia, two of the three branches of the sciatic nerve were ligated and transected distally, leaving the sural nerve intact. Behavior was tested 7 to 14 days after injury and in situ hybridization was performed one week post-injury.
# CFA mice = test: Complete Freund's Adjuvant (CFA) inflammatory pain model, Hargreaves test; conditions: mouse, in vivo
# Protocol: The CFA model of chronic inflammation was induced as described previously (96). Briefly, CFA (Sigma) was diluted 1:1 with saline and vortexed for 30 minutes. When fully suspended, we injected 20 μL of CFA into one hindpaw. Heat thresholds were measured before the injection (baseline) and 3 days after using the Hargreaves test.
# The CFA model of chronic inflammation was induced as described previously (100). Briefly, CFA (Sigma) was diluted 1:1 with saline and vortexed for 30 minutes. When fully suspended, we injected 20 μL of CFA into one hindpaw. Heat thresholds were measured before the injection (baseline) and 3 days after using the Hargreaves test.
# [4] = target: T2, ALPHA-2A ADRENERGIC RECEPTOR (Homo sapiens (Human), UniProt P08913); test: Gi recruitment (G protein); type: cell-based; conditions: Gi recruitment
# [5] = target: T2, ALPHA-2A ADRENERGIC RECEPTOR; test: Arrestin recruitment; type: cell-based; conditions: Tables 7-9
# human α2AAR [6] = target: T1, human α2AAR; test: Gαi G protein activation, BRET biosensor assay in HEK293T cells; conditions: for Emax: HEK-293T
# Protocol: (§3) Bioluminescense resonance energy transfer. G protein mediated activation of human α2AAR and D2long was monitored with Gαi1-RLucII (71, 72) together with Gβ1 and Gγ1-GFP10. Arrestin recruitment was performed by enhanced bystander BRET using CAAX-rGFP and β-arrestin-2-RLucII as biosensors (all biosensors are provided from M. Bouvier, Université de Montréal, Canada) (71, 73) in the presence of GRK2 as described (66, 74). In brief, HEK293T cells were transfected with a total amount of 3.3 μg DNA per 10^6 cells using linear polyethyleneimine (PEI, Polysciences, 3:1 PEI:DNA ratio) and transferred into 96-well half-area plates (Greiner, Frickenhausen, Germany) at a density of 10,000 cells per well and incubated for 48 hrs. Medium was exchanged with PBS (Hank's balanced salt solution) and cells were stimulated with ligands at 37° C. for 10 min for Gαi stimulation or arrestin recruitment, respectively.
# human α2AAR [7] = target: T1, human α2AAR; test: β-arrestin-2 recruitment, BRET biosensor assay in HEK293T cells
# Protocol: as §3
# [8] = Metabolic stability in male rat liver microsomes; type: in vitro ADME; conditions: 1 hour
# Protocol: Metabolic stability studies. Metabolic stability of the test compounds was assessed using male pooled rat liver microsomes (Sprague Dawley, Sigma Aldrich) as previously described (93, 94). The reactions were carried out in 2 mL polyethylene tubes on a rotator carousel (Stuart™ SB3) in an incubator at 37° C. […] Transformation reactions were initiated by the addition of 50 μL of cofactor solution (NADPH, Carl Roth, final concentration 1 mM). […] Precipitated protein was removed by centrifugation (1 min, 16,000 rcf) and the supernatants were analysed by HPLC/MS on a Thermo Scientific Dionex Ultimate 3000 HPLC system equipped with a Zorbax Eclipse XDB-C8 column (4.6×150 mm, 5 μm), a DAD detector (210 nm, 230 nm, 254 nm, 310 nm), and a BRUKER amaZon SL mass spectrometer with ESI source. The following binary eluent system (methanol in water+0.1% (v/v) formic acid) was employed: 10% for 1 min, 10% to 100% in 20 min, 100% for 5 min, 100% to 10% in 2 min, 10% for 2 min, flow 0.4 mL/min. […] Control experiments were conducted in the absence of cofactor solution to determine non-specific binding to matrix. The integral (AUC) of the extracted ion chromatograms (EIC) was used to analyze the concentration of the remaining substrates. […]
# mice [9] = test: Tail flick (50° C.) acute thermal pain assay; type: in vivo
# mice [10] = test: Rotarod motor test (motor impairment and sedation); type: in vivo
# naïve mice = test: Mechanical thresholds (von Frey) in naïve (uninjured) mice; conditions: mouse, in vivo
# human α2AAR [11] = target: T1, human α2AAR; test: α2AAR internalization assay with rGFP-CAAX and rGFP-FYVE biosensors; type: cell-based; conditions: α2AAR-RlucII/rGFP-CAAX biosensor
# Protocol: Human α2AAR internalization was evaluated by measuring the disappearance of hα2AAR-RlucII from the plasma membrane labeled with rGFP-CAAX and its relocalization in endosome labeled with rGFP-FYVE (39).
# For concentration-response curves, BRET signal was measured after 30 min incubation. Plates were read on a Spark microplate reader (Tecan; Mannedorf, Switzerland) using the BRET2 manufacturer settings.
# analgesia in vivo = conditions: result in words, Table 6
# human α2BAR = human α2BAR (Homo sapiens (Human), UniProt P18089); test: Radioligand competition binding to human α2BAR; conditions: saturation binding
# murine α2AAR = murine α2AAR (Mus musculus (Mouse), UniProt Q01338); test: Radioligand competition binding to murine α2AAR; conditions: saturation binding
# α2CAR = α2CAR (Homo sapiens (Human), UniProt P18825); test: Radioligand binding to α2C adrenergic receptor; conditions: saturation binding
# α2AAR-Y431^7.43A/F = α2AAR-Y431^7.43A/F (Homo sapiens, UniProt P08913, Y431A); test: Gi activation (BRET) at α2AAR Y431^7.43 mutants; type: cell-based
# Protocol: Investigating the sensitivity of selected ligands to the receptor mutants α2AAR-D128^3.32A, α2AAR-D128^3.32T, α2AAR-D128^3.32L, α2AAR-S215^5.42A, α2AAR-Y409^6.55A, α2AAR-Y409^6.55T, α2AAR-Y409^6.55F, α2AAR-F427^7.39F, α2AAR-Y431^7.43A, and α2AAR-Y431^7.43F was determined by monitored G protein stimulation as described above transfecting the appropriate receptor together with Gαi1-RLucII and Gβ1/Gγ1-GFP10. […] Three to ten experiments were done in duplicate.
# The sensitivity of selected ligands to the receptor mutants α2AAR-D128^3.32A, α2AAR-D128^3.32T, α2AAR-D128^3.32L, α2AAR-S215^5.42A, α2AAR-Y409^6.55A, α2AAR-Y409^6.55T, α2AAR-Y409^6.55F, α2AAR-F427^7.39F, α2AAR-Y431^7.43A, and α2AAR-Y431^7.43F was monitored by G protein activation as described above transfecting the appropriate receptor together with Gαi1-RLucII and Gβ1/Gγ2-GFP10. […] Similarly, the effect of the α2AAR-D128^3.32A, α2AAR-S215^5.42A, α2AAR-Y409^6.55A, α2AAR-Y409^6.55F, α2AAR-F427^7.39F, α2AAR-Y431^7.43A, and α2AAR-Y431^7.43F mutations on arrestin recruitment was evaluated as described above transfecting the appropriate receptor together with CAAX-rGFP, GRK2 and β-arrestin-2-RLucII. Data was analyzed as ligand induced changes in BRET compared to vehicle (deltaBRET). Three to seven experiments were done in duplicate.
# [12] = Body weight measurement over 48 hours; type: in vivo, mice; conditions: ‘9087 5, 10 or 20 mg/kg; dexmedetomidine 30 μg/kg
# mice [13] = test: Constipation assay (fecal pellets over 6 hours); conditions: i.p.; morphine 10 mg/kg, dexmedetomidine 30 μg/kg, ‘9087 5 mg/kg; versus vehicle
# [14] = mean ± s.e.m., read-out: Ki for α2AAR
# [15] = mouse, brain, ip, I.P. 10 mg/kg, read-out: T ½ Brain (converted)
# [16] = mouse, plasma, ip, I.P. 10 mg/kg
# [17] = mouse, plasma, ip, I.P. 10 mg/kg, read-out: T ½ Plasma (converted)
# [18] = Gαi EC50, BRET biosensor, HEK293T, human α2AAR
# [19] = C57BL/6N ('9087), C57BL/6 (PS75), mouse, plasma, iv, I.V. 10 mg/kg
# [20] = C57BL/6N ('9087), C57BL/6 (PS75), mouse, plasma, po, P.O. 30 mg/kg
# T1 sequence (P08913 whole entry): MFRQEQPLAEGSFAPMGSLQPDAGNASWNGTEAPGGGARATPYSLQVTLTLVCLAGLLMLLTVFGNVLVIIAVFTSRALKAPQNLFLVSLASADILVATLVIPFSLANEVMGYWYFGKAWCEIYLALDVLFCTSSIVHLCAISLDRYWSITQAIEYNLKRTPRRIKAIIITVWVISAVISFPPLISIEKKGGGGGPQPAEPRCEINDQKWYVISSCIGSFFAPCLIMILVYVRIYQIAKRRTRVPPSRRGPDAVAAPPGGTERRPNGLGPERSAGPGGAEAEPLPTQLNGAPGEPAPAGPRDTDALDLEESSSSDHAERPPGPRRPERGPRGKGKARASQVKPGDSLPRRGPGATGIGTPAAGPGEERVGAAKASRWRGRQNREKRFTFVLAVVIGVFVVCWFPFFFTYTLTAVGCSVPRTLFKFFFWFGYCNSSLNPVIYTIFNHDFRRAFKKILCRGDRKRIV
# T2 sequence (P08913 whole entry): as above
# α2CAR, sequence (P18825 whole entry): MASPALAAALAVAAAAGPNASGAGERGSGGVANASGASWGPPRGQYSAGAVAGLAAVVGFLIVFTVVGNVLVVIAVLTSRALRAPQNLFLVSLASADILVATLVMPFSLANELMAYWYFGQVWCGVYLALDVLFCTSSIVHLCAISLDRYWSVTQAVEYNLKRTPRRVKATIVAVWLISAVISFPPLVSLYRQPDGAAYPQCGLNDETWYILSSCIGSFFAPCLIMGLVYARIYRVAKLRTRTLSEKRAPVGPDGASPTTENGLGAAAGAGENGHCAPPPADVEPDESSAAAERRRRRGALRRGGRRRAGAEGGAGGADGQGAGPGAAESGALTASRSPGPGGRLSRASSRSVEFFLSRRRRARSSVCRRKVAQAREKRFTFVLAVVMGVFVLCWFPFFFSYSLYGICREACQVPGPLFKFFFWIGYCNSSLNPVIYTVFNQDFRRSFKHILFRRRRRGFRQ
# human α2BAR, sequence (P18089 whole entry): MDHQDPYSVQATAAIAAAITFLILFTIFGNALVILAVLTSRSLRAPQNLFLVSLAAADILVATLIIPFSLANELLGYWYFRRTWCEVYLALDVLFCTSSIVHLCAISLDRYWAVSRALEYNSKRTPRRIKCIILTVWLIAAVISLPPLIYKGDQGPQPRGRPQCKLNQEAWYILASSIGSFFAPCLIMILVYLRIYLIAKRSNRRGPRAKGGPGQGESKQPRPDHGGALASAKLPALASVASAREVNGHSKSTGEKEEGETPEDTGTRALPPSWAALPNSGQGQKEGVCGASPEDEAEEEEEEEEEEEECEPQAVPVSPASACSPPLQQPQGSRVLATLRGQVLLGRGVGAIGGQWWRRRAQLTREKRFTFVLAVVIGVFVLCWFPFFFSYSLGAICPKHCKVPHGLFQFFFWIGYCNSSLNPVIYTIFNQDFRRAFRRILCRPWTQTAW
# murine α2AAR, sequence (Q01338 whole entry): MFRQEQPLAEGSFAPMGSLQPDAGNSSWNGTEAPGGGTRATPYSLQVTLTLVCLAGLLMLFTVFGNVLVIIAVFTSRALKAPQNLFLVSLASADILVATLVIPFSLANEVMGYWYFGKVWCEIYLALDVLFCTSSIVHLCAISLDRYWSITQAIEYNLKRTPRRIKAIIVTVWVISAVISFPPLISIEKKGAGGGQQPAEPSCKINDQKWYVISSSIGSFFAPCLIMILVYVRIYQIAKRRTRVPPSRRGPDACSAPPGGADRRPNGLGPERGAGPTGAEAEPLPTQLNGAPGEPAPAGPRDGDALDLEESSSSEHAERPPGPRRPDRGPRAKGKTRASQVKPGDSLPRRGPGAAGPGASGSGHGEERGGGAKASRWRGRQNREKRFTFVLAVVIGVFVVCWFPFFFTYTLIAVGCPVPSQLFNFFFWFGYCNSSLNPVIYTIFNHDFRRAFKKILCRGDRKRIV
structure (smiles),measurement,setting,value
"Cc1cc2[nH]ncc2cc1-c1ccc(N)nc1 [Compound 2998, 5-(6-Methyl-1H-indazol-5-yl)pyridin-2-amine]",Ki,human α2AAR [1]; [14],180 ± 34 nM
same,"I2R binding, single point radioligand experiment",[2],no binding was seen
same,AUC Brain,[3]; I.P. 10 mg/kg,51700 ng·min/mL
same,Cmax Brain,[3]; I.P. 10 mg/kg,742 ng/mL
same,half-life,[3]; [15],0.46 h
same,AUC,[3]; [16],3070 ng·h/mL
same,Cmax,[3]; [16],2710 ng/mL
same,half-life,[3]; [17],0.4 h
same,Effect of atipamezole on the agonist's effect in SNI mice,SNI mice,not significant reversal; also recorded: partially reversed
same,Mechanical thresholds / anti-allodynic effect in SNI mice,SNI mice; systemic injection,exhibited anti-allodynic effects
same,Thermal latencies / anti-hyperalgesic effect in CFA model,CFA mice,did not
same,EC50,"[4]; Tables 7-9, read-out: G protein EC50",89 nM
same,Emax,"[4]; Tables 7-9, read-out: G protein Emax (%)",60%
same,Emax,[5],< 10%
same,EC50,human α2AAR [6]; [18],73 ± 14 nM
same,Emax,human α2AAR [6]; read-out: Gαi Emax,61 ± 3%
same,EC50,human α2AAR [7],98 ± 32 nM
same,Emax,"human α2AAR [7]; HEK-293T, read-out: β-arrestin-2 Emax",8 ± 3%
"Clc1ccc2cccc(Nc3ccncc3)c2c1 [PS75, N-(7-Chloronaphthalen-1-yl)pyridin-4-amine x TFA]",Ki,"human α2AAR [1]; mean ± SEM (Table 3), read-out: Ki",8.2 ± 0.48 nM
same,Ki,human α2AAR [1]; [14],8.2 ± 0.48 nM
same,AUC,[3]; [19],3460 ng·h/mL
same,Cmax,[3]; [19],2590 ng/mL
same,half-life,"[3]; C57BL/6N ('9087), C57BL/6 (PS75), mouse, plasma, iv, I.V. 10 mg/kg, read-out: T ½ Plasma (converted)",1.64 h
same,bioavailability,"[3]; C57BL/6N ('9087), C57BL/6 (PS75), mouse, plasma, oral, from I.V. 10 mg/kg and P.O. 30 mg/kg dosing",102%
same,AUC,[3]; [20],10600 ng·h/mL
same,Cmax,[3]; [20],2390 ng/mL
same,half-life,"[3]; C57BL/6N ('9087), C57BL/6 (PS75), mouse, plasma, po, P.O. 30 mg/kg, read-out: T ½ Plasma (converted)",3.17 h
same,half-life,"[3]; C57BL/6N ('9087, '7075, '4622), CD-1 (PS75), mouse, CSF, ip, I.P. 10 mg/kg, read-out: T ½ CSF (converted)",2.55 h
same,AUC Brain,[3]; I.P. 10 mg/kg,888000 ng·min/mL
same,AUC CSF,[3]; I.P. 10 mg/kg,7790 ng·min/mL
same,Cmax Brain,[3]; I.P. 10 mg/kg,9200 ng/mL
same,Cmax CSF,[3]; I.P. 10 mg/kg,99.3 ng/mL
same,half-life,[3]; [15],1.07 h
same,AUC,[3]; [16],927 ng·h/mL
same,Cmax,[3]; [16],679 ng/mL
same,half-life,[3]; [17],0.73 h
same,"Metabolic stability, compound remaining",[8],remain largely unmodified after 1 hour
same,Effect of atipamezole on the agonist's effect in SNI mice,SNI mice; TFA,not significant reversal; also recorded: partially reversed
same,Mechanical thresholds / anti-allodynic effect in SNI mice,SNI mice; systemic injection,exhibited anti-allodynic effects
same,Reversal of mechanical hypersensitivity in SNI mice,SNI mice; systemic injection,completely reversed the mechanical hypersensitivity
same,"Withdrawal latencies, tail flick",mice [9],increased withdrawal latencies
same,Performance in rotarod test,mice [10]; doses up to 20 mg/kg,did not have an effect
same,Mechanical thresholds of naïve (uninjured) mice,naïve mice,did increase the mechanical thresholds
same,Disappearance of α2AAR from the plasma membrane (internalization),human α2AAR [11],no effect
same,functional classification (agonist / weak agonist),"[4]; Table 6, result in words",agonist
same,EC50,"[4]; Table 6, read-out: EC50",4.8 nM
same,Emax,"[4]; Table 6, read-out: Emax (%)",79%
same,analgesic in vivo,analgesia in vivo,analgesic in vivo
same,EC50,"human α2AAR [6]; Gi EC50 ± SE, BRET biosensor, human α2AAR (Table 3)",4.8 nM
same,EC50,human α2AAR [6]; [18],4.8 nM
same,Emax,human α2AAR [6]; read-out: Gi Emax ± SEM,82%
same,Emax,human α2AAR [6]; read-out: Gαi Emax,82%
same,Fold increased Gi potency compared to ‘9087,human α2AAR [6]; TFA,13 fold and 11 fold
same,Emax,"human α2AAR [7]; HEK-293T, read-out: β-Arr-2 Emax @ 0.1 mM",15%
same,Emax at 100 µM,"human α2AAR [7]; HEK-293T, read-out: β-arrestin-2 Emax @ 0.1 mM",15 ± 3%
"COC1(C2=NCCN2)COc2ccccc2O1 (centres unmarked) [[^3H]RX82,1002]",Kd,human α2AAR [1]; saturation binding,0.54 ± 0.024 nM
same,Kd,human α2BAR,2.3 ± 0.52 nM
same,Kd,murine α2AAR,1.8 ± 0.61 nM
same,Kd,α2CAR,0.58 ± 0.11 nM
Cc1cccc([C@H](C)c2cnc[nH]2)c1C [dexmedetomidine],Gi signaling at Y431^7.43A,α2AAR-Y431^7.43A/F,essentially eliminated
same,AUC Brain,[3]; I.P. 30 μg/kg,285 ng·min/mL
same,Cmax Brain,[3]; I.P. 30 μg/kg,8 ng/mL
same,Sedation in rotarod test,mice [10]; 60 μg/kg,completely sedating; also recorded: complete sedation
same,Effect on body weight over 48 hours,[12],no effect on body weight
CN1CC[C@]23c4c5ccc(O)c4O[C@H]2[C@@H](O)C=C[C@H]3[C@H]1C5 [morphine],Constipation,mice [13],induced constipation
